Results from ChEMBL document CHEMBL3217419, “Blockage of collagen binding to integrin 21: structureactivity relationship of proteinprotein interaction inhibitors” (Medchemcomm, 2011).

Tests used:
[1] = molecular target: Integrin alpha-1 (Homo sapiens) (UniProt P56199); assay: Inhibition of human alpha1 integrin expressed in CHO cells binding to collagen I at 100 uM after 2 hrs by cell-adhesion-based WST-1 assay relative to control
CHO [2] = assay: Cytotoxicity against CHO cells assessed as release of lactate dehydrogenase by resazurin assay; assay type: cell-based, Cricetulus griseus; conditions: chinese hamster
CHO [3] = assay: Selectivity ratio of EC50 for human alpha2 integrin expressed in CHO cells binding to collagen IV to EC50 for human alpha1 integrin expressed in CHO cells binding to collagen I; assay type: cell-based
[4] = molecular target: Integrin alpha-1 (Homo sapiens) (UniProt P56199); assay: Inhibition of human alpha1 integrin expressed in CHO cells binding to collagen I at 50 uM after 2 hrs by cell-adhesion-based WST-1 assay
Integrin alpha-1 = molecular target: T1, Integrin alpha-1 (Homo sapiens, UniProt P56199); assay: Inhibition of human alpha1 integrin expressed in CHO cells binding to collagen I after 2 hrs by cell-adhesion-based WST-1 assay
T1 sequence (P56199 whole entry): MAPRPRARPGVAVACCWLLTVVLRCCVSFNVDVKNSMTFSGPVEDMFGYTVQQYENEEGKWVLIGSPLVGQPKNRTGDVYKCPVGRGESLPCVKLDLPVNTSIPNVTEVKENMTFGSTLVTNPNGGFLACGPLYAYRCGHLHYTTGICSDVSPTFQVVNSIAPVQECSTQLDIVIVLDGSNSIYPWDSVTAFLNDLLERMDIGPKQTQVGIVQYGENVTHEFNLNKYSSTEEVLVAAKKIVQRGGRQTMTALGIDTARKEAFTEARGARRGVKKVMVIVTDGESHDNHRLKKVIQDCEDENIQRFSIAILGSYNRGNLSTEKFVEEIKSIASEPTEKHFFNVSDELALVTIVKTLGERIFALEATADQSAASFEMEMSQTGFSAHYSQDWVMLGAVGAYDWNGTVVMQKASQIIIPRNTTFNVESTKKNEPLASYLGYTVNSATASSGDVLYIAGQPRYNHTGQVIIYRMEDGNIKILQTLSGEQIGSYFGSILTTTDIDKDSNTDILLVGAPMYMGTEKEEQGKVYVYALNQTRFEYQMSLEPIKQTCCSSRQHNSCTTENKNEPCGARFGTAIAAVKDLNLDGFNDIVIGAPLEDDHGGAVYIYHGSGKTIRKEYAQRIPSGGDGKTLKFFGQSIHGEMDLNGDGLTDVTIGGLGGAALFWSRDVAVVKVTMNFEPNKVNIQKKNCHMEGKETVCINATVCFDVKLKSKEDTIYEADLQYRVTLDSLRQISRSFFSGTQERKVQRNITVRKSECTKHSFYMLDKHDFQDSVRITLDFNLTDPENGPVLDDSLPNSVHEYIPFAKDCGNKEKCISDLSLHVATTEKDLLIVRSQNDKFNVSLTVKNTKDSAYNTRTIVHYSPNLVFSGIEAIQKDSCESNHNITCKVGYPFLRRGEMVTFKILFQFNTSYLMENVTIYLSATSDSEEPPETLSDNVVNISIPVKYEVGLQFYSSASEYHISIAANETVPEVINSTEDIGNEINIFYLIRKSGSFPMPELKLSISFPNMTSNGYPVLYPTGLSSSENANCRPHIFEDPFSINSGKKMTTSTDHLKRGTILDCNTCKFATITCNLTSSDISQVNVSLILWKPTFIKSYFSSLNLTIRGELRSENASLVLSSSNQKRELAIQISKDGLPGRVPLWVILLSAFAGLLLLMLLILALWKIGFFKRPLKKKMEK

[5] = Lipophilicity, log P of the compound; assay type: physicochemical; conditions: octanol/water
Integrin alpha2/beta1 = Integrin alpha2/beta1 (Homo sapiens, UniProt P05556+P17301); assay: Binding affinity to alpha2beta1 integrin (unknown origin); assay type: protein-complex assay
Chain of Integrin alpha2/beta1 (P05556 whole entry): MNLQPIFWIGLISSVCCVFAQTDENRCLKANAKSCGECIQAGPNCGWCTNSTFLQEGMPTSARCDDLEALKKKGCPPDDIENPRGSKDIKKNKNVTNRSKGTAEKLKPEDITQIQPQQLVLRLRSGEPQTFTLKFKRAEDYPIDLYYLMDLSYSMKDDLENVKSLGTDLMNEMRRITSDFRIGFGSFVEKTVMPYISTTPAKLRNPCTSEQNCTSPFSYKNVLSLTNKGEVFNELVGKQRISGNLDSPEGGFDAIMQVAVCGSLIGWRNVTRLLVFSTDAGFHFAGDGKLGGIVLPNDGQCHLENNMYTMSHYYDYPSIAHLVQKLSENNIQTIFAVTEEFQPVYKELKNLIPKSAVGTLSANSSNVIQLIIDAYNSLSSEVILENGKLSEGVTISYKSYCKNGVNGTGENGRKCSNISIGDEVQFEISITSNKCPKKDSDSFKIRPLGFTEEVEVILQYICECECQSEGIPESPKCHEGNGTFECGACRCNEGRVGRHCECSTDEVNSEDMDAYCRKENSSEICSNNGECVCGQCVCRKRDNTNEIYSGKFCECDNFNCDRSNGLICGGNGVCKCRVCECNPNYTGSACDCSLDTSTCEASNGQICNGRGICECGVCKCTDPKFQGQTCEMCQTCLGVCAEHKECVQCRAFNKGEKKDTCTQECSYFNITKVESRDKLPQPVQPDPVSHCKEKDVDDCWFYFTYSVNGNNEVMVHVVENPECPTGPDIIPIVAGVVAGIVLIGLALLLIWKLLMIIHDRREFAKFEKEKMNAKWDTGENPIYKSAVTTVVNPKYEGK
Chain of Integrin alpha2/beta1 (P17301 whole entry): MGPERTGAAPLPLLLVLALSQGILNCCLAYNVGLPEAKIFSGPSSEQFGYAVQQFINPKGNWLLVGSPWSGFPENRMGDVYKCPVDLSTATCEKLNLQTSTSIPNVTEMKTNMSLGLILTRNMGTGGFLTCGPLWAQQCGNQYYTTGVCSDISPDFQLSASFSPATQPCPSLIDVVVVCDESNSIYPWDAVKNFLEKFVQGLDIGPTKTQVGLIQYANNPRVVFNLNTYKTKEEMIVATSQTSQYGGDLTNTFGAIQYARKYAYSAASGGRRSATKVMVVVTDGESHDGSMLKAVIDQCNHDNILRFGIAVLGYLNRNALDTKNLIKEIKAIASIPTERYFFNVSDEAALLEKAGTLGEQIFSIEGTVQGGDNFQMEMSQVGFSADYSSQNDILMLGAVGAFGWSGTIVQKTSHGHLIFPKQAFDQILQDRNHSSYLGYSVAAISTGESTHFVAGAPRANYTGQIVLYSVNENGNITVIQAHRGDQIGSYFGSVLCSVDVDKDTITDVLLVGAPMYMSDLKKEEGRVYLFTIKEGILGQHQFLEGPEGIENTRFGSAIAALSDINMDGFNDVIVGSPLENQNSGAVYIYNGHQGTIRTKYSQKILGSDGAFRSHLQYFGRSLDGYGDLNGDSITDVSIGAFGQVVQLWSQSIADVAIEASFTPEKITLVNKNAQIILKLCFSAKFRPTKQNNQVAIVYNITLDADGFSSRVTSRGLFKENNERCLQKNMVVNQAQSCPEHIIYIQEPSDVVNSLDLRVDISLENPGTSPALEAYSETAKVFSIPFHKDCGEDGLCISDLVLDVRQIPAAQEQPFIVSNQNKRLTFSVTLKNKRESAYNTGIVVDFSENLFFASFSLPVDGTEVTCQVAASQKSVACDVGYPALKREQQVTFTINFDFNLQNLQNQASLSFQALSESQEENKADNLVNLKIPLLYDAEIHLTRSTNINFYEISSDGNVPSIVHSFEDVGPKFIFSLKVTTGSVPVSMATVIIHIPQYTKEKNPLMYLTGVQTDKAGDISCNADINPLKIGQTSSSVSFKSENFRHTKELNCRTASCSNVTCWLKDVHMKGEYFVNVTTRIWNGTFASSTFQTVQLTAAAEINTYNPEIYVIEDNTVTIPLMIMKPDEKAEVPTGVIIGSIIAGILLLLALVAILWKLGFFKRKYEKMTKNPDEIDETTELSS

Row | Imax [1] | inhibition [4] | EC50 (Integrin alpha-1) | logP [5] | EC50 (Integrin alpha2/beta1) | SMILES | Activity (CHO [2]) | Ratio EC50 (CHO [3])
1 | 69% | 69% | – | – | – | O=C(c1ccccc1)c1cccc(NS(=O)(=O)c2ccc(Cl)cc2Cl)c1 | <= 200 uM | 3
2 | – | 8% | Not Active | – | – | CN(c1cccc(C(=O)c2ccccc2)c1)S(=O)(=O)c1ccc(Cl)cc1Cl | – | –
3 | – | 0% | Not Active | – | – | O=C(c1ccccc1)c1ccc(OS(=O)(=O)c2ccc(Cl)cc2Cl)cc1 | – | –
4 | 72% | 72% | – | – | – | O=C(c1ccccc1)c1cccc(NS(=O)(=O)c2ccc(I)cc2)c1 | <= 200 uM | –
5 | 82% | 82% | – | 3.5 | – | O=C(c1ccccc1)c1ccc(NS(=O)(=O)c2ccc(Cl)cc2Cl)cc1 | <= 20 uM | 1.5
6 | – | 0% | Not Active | – | – | CC(=O)c1cccc(NS(=O)(=O)c2ccc(Cl)cc2Cl)c1 | – | –

Continued, compound first:

Row | SMILES | Imax [1] | inhibition [4] | EC50 (Integrin alpha-1) | logP [5] | EC50 (Integrin alpha2/beta1) | Activity (CHO [2]) | Ratio EC50 (CHO [3])
7 | CN(c1ccc2c(c1)C(=O)c1ccccc1-2)S(=O)(=O)c1ccc(Cl)cc1Cl | – | 0% | Not Active | – | – | – | –
8 | O=C1c2ccccc2-c2ccc(NS(=O)(=O)c3ccc(Cl)cc3Cl)cc21 | 93% | 93% | – | – | – | <= 200 uM | 1.2
9 | Cc1ccc(S(=O)(=O)Nc2cccc(C(=O)c3ccccc3)c2)cc1 | 34% | 34% | Not Active | – | – | <= 200 uM | –
10 | O=S(=O)(Nc1ccc2c(c1)Cc1ccccc1-2)c1ccc(Cl)cc1Cl | 87% | 70% | – | 4.1 | – | <= 200 uM | 0.8
11 | O=C(c1ccccc1)c1ccc(NS(=O)(=O)c2ccccc2)cc1 | – | 0% | Not Active | – | – | <= 200 uM | –
12 | O=C(c1ccccc1)c1ccc(NS(=O)(=O)c2cccc(-c3ccc(F)cc3)c2)cc1 | – | – | – | – | 2 µM | – | –
13 | CN(c1ccc(C(=O)c2ccccc2)cc1)S(=O)(=O)c1ccc(Cl)cc1Cl | – | 0% | Not Active | – | – | – | –
14 | O=C(c1ccccc1)c1ccc(OS(=O)(=O)c2cc(Cl)cc(Cl)c2O)cc1 | 95% | 86% | – | 3.1 | – | <= 100 uM | 2.8
15 | O=C(c1ccccc1)c1cccc(NS(=O)(=O)c2ccccc2)c1 | – | 4% | Not Active | – | – | <= 200 uM | –
16 | O=C(c1ccccc1)c1ccc(NS(=O)(=O)c2ccc(Br)cc2)cc1 | 34% | 34% | Not Active | – | – | <= 200 uM | –
17 | O=C(c1ccccc1)c1ccc(NS(=O)(=O)c2ccc(I)cc2)cc1 | 85% | 85% | – | – | – | <= 200 uM | 1.3
18 | Cc1ccc(S(=O)(=O)Nc2ccc(C(=O)c3ccccc3)cc2)cc1 | 35% | 35% | Not Active | – | – | <= 200 uM | –
19 | O=C(c1ccccc1)c1cccc(NS(=O)(=O)c2ccc(Br)cc2)c1 | 96% | 92% | – | – | – | <= 200 uM | 2.2
